The record followed here is patent US20020019389A1, “Urea derivative useful as an anti-cancer agent and process for preparing same” (priority 2000, published 2002).

The structures appear in SMILES notation. Converted amounts (≈) assume the structure as drawn. Like-named read-outs stand apart in the source and are kept apart here.

Holding throughout (assay type): cell-based
Data set [1] deals with A431 (ovarian cancer) cell line. Put plainly: Anti-cancer activity in vitro, A431 cell line. Particulars: A431 Cell Line. The protocol:
(§1) The anti-cancer activity and toxicity of the compound according to the present invention were evaluated in vitro using A549 (lung cancer), SUN638 (gastric cancer), HCT116 (rectal cancer), and A431 (ovarian cancer) cell lines. The above four (4) cell lines were purchased from Cancer Research Institute, Seoul National University College of Medicine. […] The experiment was basically carried out according to the process described in Monks, A., et al, Journal of National Cancer Institute. 83: 757-766 (1991) and the results are represented in the following Tables 2 and 3.

For data set [2], the system named is SUN638 (gastric cancer) cell line. Put plainly: Anti-cancer activity in vitro, SUN638 cell line. The protocol:
as §1

The test system of data set [3] is A549 (lung cancer) cell line. Put plainly: Anti-cancer activity in vitro, A549 cell line. The method, then:
as §1

Data set [4] has as its system HCT116 (rectal cancer) cell line. As to the kind of experiment: Anti-cancer activity in vitro, HCT116 cell line. The protocol: as §1

With `COc1cc2c(cc1OC)[C@H](c1ccccc1)CN(C(=O)Nc1nc3ccccc3nc1OC)CC2` [Compound 3, 3-[N-(2-methoxyquinoxalin-3-yl)aminocarbonyl]-(S)-7,8-dimethoxy-1-phenyl-2,3,4,5-tetrahydro-3H-benzazepine], the GI50 is 2.04 µg/mL (≈ 4.21 µM) in data set [1], 1.47 µg/mL (≈ 3.03 µM) in data set [2] (SUN638 Cell Line), 1.31 µg/mL (≈ 2.7 µM) in data set [3] (A549 Cell Line) and 1.31 µg/mL (≈ 2.7 µM) in data set [4] (HCT116 Cell Line). In addition, the LC50 in data set [1], in data set [2] (SUN638 Cell Line), in data set [3] (A549 Cell Line) and in data set [4] (HCT116 Cell Line) was >100 µg/mL each time. In addition, the TGI50 in data set [1] is 26.30 µg/mL; in data set [2] (SUN638 Cell Line), 9.33 µg/mL; in data set [3] (A549 Cell Line) it was 5.62 µg/mL; in data set [4] (HCT116 Cell Line), 5.62 µg/mL.
Take `COc1cc2c(cc1OC)C(c1ccccc1)CN(C(=S)n1ccnc1)CC2` (stereo not drawn) [Compound 67, 3-[(1H-imidazol-1-yl)thiocarbonyl]-7,8-dimethoxy-1-phenyl-2,3,4,5-tetrahydro-3H-benzazepine]: the GI50 in data set [1] is 0.70 µg/mL (≈ 1.78 µM); in data set [2] (SUN638 Cell Line) it was 1.51 µg/mL (≈ 3.84 µM); in data set [3] (A549 Cell Line), 0.66 µg/mL (≈ 1.68 µM); in data set [4] (HCT116 Cell Line) it was 0.23 µg/mL (≈ 0.584 µM). In addition, the LC50 in data set [1], in data set [2] (SUN638 Cell Line), in data set [3] (A549 Cell Line) and in data set [4] (HCT116 Cell Line) was >100 µg/mL each time. In addition, the TGI50 stood at 30.19 µg/mL in data set [1], 8.12 µg/mL in data set [2] (SUN638 Cell Line), 17.78 µg/mL in data set [3] (A549 Cell Line) and 13.48 µg/mL in data set [4] (HCT116 Cell Line).
In the case of `COc1cc(OC)cc(N2CCN(C(=O)n3ccnc3)CC2)c1` [Compound 58, 1-[(1H-imidazol-1-yl)carbonyl]-4-(3,5-dimethoxyphenyl) piperazine], the GI50 came to 2.39 µg/mL (≈ 7.55 µM) in data set [2]; 2.75 µg/mL (≈ 8.69 µM) in data set [3] (Homo sapiens, A549); 0.66 µg/mL (≈ 2.09 µM) in data set [4] (Homo sapiens, HCT-116). Further, the LC50 was > 100 µg/mL in data set [2] (read-out: LC50); > 100 µg/mL in data set [3] (Homo sapiens, A549, read-out: LC50); > 100 µg/mL in data set [4] (Homo sapiens, HCT-116, read-out: LC50).
`COc1cc2c(cc1OC)[C@H](c1ccccc1)CN(C(=O)n1ccnc1)CC2` [Compound 69, 3-[(1H-imidazol-1-yl)carbonyl]-(S)-7,8-dimethoxy-1-phenyl-2,3,4,5-tetrahydro-3H-benzazepine]: in data set [2] (SUN638 Cell Line), the GI50 came out at 0.13 µg/mL (≈ 0.344 µM), the LC50 was >100 µg/mL and the TGI50 turned out to be 3.63 µg/mL. Also, in data set [3] (A549 Cell Line), the GI50 worked out at 0.36 µg/mL (≈ 0.954 µM), the median lethal concentration (LC50) was >100 µg/mL and the TGI50 came out at 97.72 µg/mL. In addition, in data set [4] (HCT116 Cell Line), the GI50 was 0.13 µg/mL (≈ 0.344 µM), the LC50 is >100 µg/mL and the TGI50 is 10.71 µg/mL.
Consider `COc1ccc2c(c1)C(c1ccccc1)CN(C(=O)n1ccnc1)CC2` (stereo not drawn) [Compound 72, 3-[(1H-imidazol-1-yl)carbonyl]-8-methoxy-1-phenyl-2,3,4,5-tetrahydro-3H-benzazepine], for which, in data set [2] (SUN638 Cell Line), the GI50 amounted to 1.44 µg/mL (≈ 4.14 µM), the LC50 is >100 µg/mL and the TGI50 was 7.24 µg/mL. Further, in data set [3] (A549 Cell Line), the GI50 worked out at 2.23 µg/mL (≈ 6.42 µM), the LC50 was >100 µg/mL and the TGI50 stood at 100 µg/mL. In addition, in data set [4] (HCT116 Cell Line), the GI50 was 0.10 µg/mL (≈ 0.288 µM), the median lethal concentration (LC50) was >100 µg/mL and the TGI50 came to 9.42 µg/mL.
In the case of `COc1cc2c(cc1OC)[C@@H](c1ccccc1)CN(C(=O)Nc1nc3ccccc3nc1OC)CC2` [Compound 4, 3-[N-(2-methoxyquinoxalin-3-yl)aminocarbonyl]-(R)-7,8-dimethoxy-1-phenyl-2,3,4,5-tetrahydro-3H-benzazepine], in data set [2] (SUN638 Cell Line), the concentration for 50% growth inhibition (GI50) is 1.86 µg/mL (≈ 3.84 µM), the LC50 is >100 µg/mL and the TGI50 was found to be 6.76 µg/mL. Also, in data set [3] (A549 Cell Line), the GI50 was 1.20 µg/mL (≈ 2.48 µM), the LC50 is >100 µg/mL and the TGI50 amounted to 100 µg/mL. Besides, in data set [4] (HCT116 Cell Line), the GI50 amounted to 0.12 µg/mL (≈ 0.248 µM), the LC50 is >100 µg/mL and the TGI50 came out at 3.54 µg/mL.
